Measurements: patent US5773459A, “Urea- and thiourea-type compounds” (Sugen, Inc., priority 1995, dated 1998)
Where two headings read alike, the source gives them in different places.

Columns and labels:
[1] = target: T1, PDGFR-beta (Homo sapiens, UniProt P09619); test: PDGF-R Cellular Assay (cellular kinase ELISA); format: cell-based
T1 construct: the human glioblastoma line U1242 that expresses PDGFR-beta; endogenous in cells; host or cells: U1242 (U1242 MG) human glioblastoma
Description: (§1) Growth assays were carried out using human mammary epithelial SKBR3 (ATCC HTB30) cells (SKBR3 cells over-express HER2), SKOV3 (ATCC HTB77) human ovarian cancer cell line (SKOV3 cells also over-express HER2), A431 cells (A431 cells over-express EGFR) MCF7 human breast carcinoma cells, MCF7 cells overexpressing the HER2 kinase (MCF7-HER2), NIH3T3 cells, and NIH3T3 cells overexpressing the HER2 kinase (3T3-HER2.
The PDGF cellular kinase assay was carried out as follows: cells are lysed in 0.2M Hepes, 0.15M NaCl, 10% V/V glycerol, 0.04% Triton X-100, 5 mM EDTA, 5 mM Na+ vanadate and 2 mM Na+ pyrophosphate; cell lysates are then added to an ELISA plate coated with an anti-PDGF receptor antibody (Genzyme); ELISA plates are coated at 0.5 μg of antibody/well in 150 μl of PBS for 18 hours at 4° C. prior to the addition of the lysate; the lysate is incubated in the coated plates for 1 hour and then washed four times in TBST (35 mM Tris-HCl pH 7.0, 0.15M NaCl, 0.1% Triton X100); anti-phosphotyrosine antibody (100 μl in PBS) is added and the mixture is incubated for 30 minutes at room temperature; the wells were then washed four times in TBST, a secondary antibody conjugated to POD (TAGO) is added to each well, and the treated well are incubated for 30 minutes at room temperature; the wells are then washed four times in TBST, ABTS/H2 O2 solution is added to each well and the wells are incubated for two minutes; absorbance is then measured at 410 nm.
U1242 MG cells were plated in 96-well plates at a concentration of 5×10^4 cells/well in cultured media containing 0.5% FBS. The cells were incubated for 24 hours. The cells were then treated with a particular compound for 2 hours followed by the addition of 100 ng/ml PDGF-BB and incubation for 10 minutes.
Cells were lysed in 0.2M Hepes, 0.15M NaCl, 10% V/V glycerol, 0.04% Triton X-100, 5 mM EDTA, 5 mM Na+ vanadate and 2 mM Na+ pyrophosphate. Cell lysates were then added to an ELISA plate coated with an anti-PDGF receptor antibody (Genzyme). ELISA plates were coated at 0.5 μg of antibody/well in 150 μl of PBS for 18 hours at 4° C. prior to the addition of the lysate.
The lysate was incubated in the coated plates for 1 hour and then washed four times in TBST (35 mM Tris-HCl pH 7.0, 0.15M NaCl, 0.1% Triton X-100). Anti-phosphotyrosine antibody (100 μl in PBS) was added and the mixture was incubated for 30 minutes at room temperature. The wells were then washed four times in TBST, a secondary antibody conjugated to POD (TAGO) was added to each well, and the treated well were incubated for 30 minutes at room temperature. The wells were then washed four times in TBST, ABTS/H2 O2 solution was added to each well and the wells were incubated for two minutes. Absorbance was then measured at 410 nm.

[2] = target: T2, human EGF receptor (Homo sapiens, UniProt P00533); test: EGFR Whole Cell Kinase Assay (EGFR-3T3 assay); format: cell-based
T2 construct: expressed in transfected cells; host or cells: NIH3T3 clone C7 (EGFR/C7)
T2 sequence (P00533 25-1210): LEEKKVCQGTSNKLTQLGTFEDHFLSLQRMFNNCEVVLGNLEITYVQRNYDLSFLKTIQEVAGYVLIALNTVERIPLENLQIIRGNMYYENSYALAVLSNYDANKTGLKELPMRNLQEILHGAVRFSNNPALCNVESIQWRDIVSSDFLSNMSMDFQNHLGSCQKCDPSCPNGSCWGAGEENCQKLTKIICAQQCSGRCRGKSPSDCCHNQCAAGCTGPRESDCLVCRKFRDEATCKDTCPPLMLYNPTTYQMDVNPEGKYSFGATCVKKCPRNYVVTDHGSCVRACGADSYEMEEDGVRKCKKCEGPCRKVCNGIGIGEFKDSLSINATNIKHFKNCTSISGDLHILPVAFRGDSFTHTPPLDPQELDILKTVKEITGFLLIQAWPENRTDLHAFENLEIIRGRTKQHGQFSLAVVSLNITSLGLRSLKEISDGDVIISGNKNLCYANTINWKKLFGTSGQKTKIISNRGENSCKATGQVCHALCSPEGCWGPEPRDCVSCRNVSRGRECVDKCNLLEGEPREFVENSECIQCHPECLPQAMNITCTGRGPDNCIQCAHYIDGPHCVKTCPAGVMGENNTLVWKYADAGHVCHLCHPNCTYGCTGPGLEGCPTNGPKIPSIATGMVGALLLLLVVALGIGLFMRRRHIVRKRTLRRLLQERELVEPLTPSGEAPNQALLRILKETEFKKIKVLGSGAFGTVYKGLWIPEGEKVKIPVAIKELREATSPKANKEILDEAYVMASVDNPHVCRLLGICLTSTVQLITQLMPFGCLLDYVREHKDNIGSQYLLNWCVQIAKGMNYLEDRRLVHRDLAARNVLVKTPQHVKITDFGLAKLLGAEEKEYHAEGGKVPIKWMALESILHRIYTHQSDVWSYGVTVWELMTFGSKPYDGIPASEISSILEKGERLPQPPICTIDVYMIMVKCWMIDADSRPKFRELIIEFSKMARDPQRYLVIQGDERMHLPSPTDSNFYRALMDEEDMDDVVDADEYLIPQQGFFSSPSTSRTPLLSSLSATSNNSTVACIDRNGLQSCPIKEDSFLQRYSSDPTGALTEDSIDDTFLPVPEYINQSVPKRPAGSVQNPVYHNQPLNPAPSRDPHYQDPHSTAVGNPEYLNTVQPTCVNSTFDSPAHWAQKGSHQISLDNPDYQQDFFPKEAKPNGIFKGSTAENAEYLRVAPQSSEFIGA
Description: as §1
EGFR Whole Cell Kinase Assay
EGFR kinase activity (EGFR-3T3 assay) in whole cells was measured as described below:
Coated plates are good for up to 10 days when stored at 4.sunburst.C.
B. On day of use, remove coating buffer and replace with blocking buffer (5% Carnation Instant NonFat Dry Milk in PBS). Incubate the plate, shaking, at room temperature (about 23.sunburst.C to 25.sunburst.C) for 30 minutes. Just prior to use, remove blocking buffer and wash plate 4 times with TBST buffer.
A. EGFR/C7 cell line (Honegger, et al., supra) can be used for this assay.
B. Choose dishes having 80-90% confluence for the experiment.
Trypsinize cells and stop reaction by adding 10% CS DMEM medium. Suspend cells in DMEM medium (10% CS DMEM medium) and centrifuge once at 1000 rpm, and once at room temperature for 5 minutes.
C. Resuspend cells in seeding medium (DMEM, 0.5% bovine serum), and count the cells using trypan blue. Viability above 90% is acceptable. Seed cells in DMEM medium (0.5% bovine serum) at a density of 10,000 cells per well, 100 μl per well, in a 96 well microtiter plate. Incubate seeded cells in 5% CO2 at 37.sunburst.C for about 40 hours.
A. Check seeded cells for contamination using an inverted microscope. Dilute drug stock (10 mg/ml in DMSO) 1:10 in DMEM medium, then transfer 5 μl to a test well for a final drug dilution of 1:200 and a final DMSO concentration of 1%.
Control wells receive DMSO alone. Incubate in 5% CO2 at 37° C. for one hour.
C. Prepare fresh HNTG sufficient for 100 μl per well; and place on ice.
Control wells receive DMEM alone. […]
K. The maximal phosphotyrosine signal is determined by subtracting the value of the negative controls from the positive controls.

[3] = U1242 MG cells, PDGF-BB stimulated, read-out: ELISA DATA: PDGFR
[4] = EGFR/C7 NIH3T3 cells, EGF stimulated, read-out: ELISA DATA: EGFR

T1 sequence (P09619 33-1106): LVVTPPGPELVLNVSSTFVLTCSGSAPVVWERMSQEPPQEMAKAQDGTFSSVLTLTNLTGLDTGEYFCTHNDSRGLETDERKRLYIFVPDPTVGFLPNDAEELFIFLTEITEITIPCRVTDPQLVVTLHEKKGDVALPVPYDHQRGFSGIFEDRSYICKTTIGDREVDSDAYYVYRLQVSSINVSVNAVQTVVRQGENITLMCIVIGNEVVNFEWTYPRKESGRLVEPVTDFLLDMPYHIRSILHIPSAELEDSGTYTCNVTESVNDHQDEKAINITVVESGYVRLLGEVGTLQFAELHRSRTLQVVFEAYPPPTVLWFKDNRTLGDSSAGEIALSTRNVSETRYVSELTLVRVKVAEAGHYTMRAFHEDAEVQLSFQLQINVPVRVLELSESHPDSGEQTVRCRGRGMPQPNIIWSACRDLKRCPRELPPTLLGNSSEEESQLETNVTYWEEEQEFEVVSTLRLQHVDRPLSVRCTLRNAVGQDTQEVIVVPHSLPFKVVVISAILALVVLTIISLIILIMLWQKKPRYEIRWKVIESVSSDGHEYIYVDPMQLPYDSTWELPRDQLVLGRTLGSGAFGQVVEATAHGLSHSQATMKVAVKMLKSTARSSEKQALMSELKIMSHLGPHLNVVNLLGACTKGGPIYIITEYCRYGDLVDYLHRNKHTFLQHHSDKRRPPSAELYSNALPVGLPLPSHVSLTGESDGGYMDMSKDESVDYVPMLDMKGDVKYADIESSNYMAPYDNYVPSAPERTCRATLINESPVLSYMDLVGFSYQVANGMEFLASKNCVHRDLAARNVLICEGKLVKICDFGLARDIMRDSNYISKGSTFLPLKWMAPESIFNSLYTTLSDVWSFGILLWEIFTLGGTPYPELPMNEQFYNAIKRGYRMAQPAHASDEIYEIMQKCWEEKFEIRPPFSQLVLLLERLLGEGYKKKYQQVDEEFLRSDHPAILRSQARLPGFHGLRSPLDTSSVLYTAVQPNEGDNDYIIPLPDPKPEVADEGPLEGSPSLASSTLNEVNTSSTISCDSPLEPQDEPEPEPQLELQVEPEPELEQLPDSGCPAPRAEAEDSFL

Structure (SMILES)	IC50 [1, 3]	IC50 [2, 4]	IC50 [2]	IC50 [1]
CC(C)S(=O)(=O)c1csc(NC(=O)Nc2cc(C(F)(F)F)cc(C(F)(F)F)c2)c1Cl [Example Z2, N-[3-Chloro-4-(isopropylsulfonyl)thien-2-yl]-N'-(3,5-di-trifluoromethylphenyl)urea]	> 50 µM			
N#Cc1ccc(NC(=S)Nc2ccc(S(=O)(=O)N3CCCCC3)cc2)cc1 [Example Z4, N-(4-Cyanophenyl)-N'-[4-[(piperid-1-yl)sulfonyl]phenyl]thiourea]	> 100 µM	> 100 µM		
O=C(Nc1ccc(SC(F)(F)F)cc1)Nc1ccc(Oc2ccc(Cl)cc2Cl)nc1 [Example Z3]			69.5 µM	> 100 µM
CC(C)S(=O)(=O)c1csc(NC(=O)Nc2ccc(C(C)(C)C)cc2)c1Cl [Example Z1, N-[3-Chloro-4-(isopropylsulfonyl)thien-2-yl]-N'-(4-t-butylphenyl)urea]	> 50 µM	> 100 µM		
